Laboratory results taken from patent US10889569B2, “Condensed ring group azacyclobutyl triazole derivative, preparation method therefor and use thereof in medicine” (Jiangsu Hengrui Medicine Co., Ltd., priority 2016, dated 2021).

Tests used:
Type in all cases: cell-based
human V1bR = human V1bR (Homo sapiens, UniProt P47901); test: Inhibition activity on human V1bR (Fluo-4 calcium assay, HEK293/human V1bR pool cells); conditions: vasopressin 3 nM
Method: The inhibition effect of the compounds of the present invention on the activity of human V1bR protein expressed in HEK293/human V1bR cells was determined by the following experimental method:
The pcDNA3.1-V1bR plasmid was transferred into HEK293 cells with the Lipofectamine® 3000 transfection reagent; G418 was added on the next day, and the HEK293/human V1bR pool cell lines were obtained.
HEK293/human V1bR pool cells were inoculated in a 96-well plate with an inoculation density of 25,000 cells/well one day in advance. On the next day, a loading buffer containing Fluo-4 dye was formulated using the reagents in the Fluo-4 NW calcium assay kit, and the culture medium was then removed; 100 μl of the loading buffer containing Fluo-4 dye were added to each well, and the plate was incubated at 37° C. for 30 minutes. After that, the plate was moved to room temperature and equilibrated for 10 minutes. The compounds were formulated into 10^6, 10^5, 10^4, 10^3, 10^2 and 10^1 nM. 1 μl of the compounds in each concentration was added to each well, and the plate was incubated at room temperature for 10 minutes. 50 μl of vasopressin polypeptide (3 nM) were automatically added by the machine, and the values were immediately detected at 494/516 nM by the flexstation 3 microplate reader. IC50 values of the compounds were calculated by Graphpad prism software using fluorescence signals corresponding to different concentrations.
The inhibition activity of the compounds of the present invention on human V1bR was determined by the above test, and the obtained IC50 values are shown in Table 3.

human V1aR = human V1aR (Homo sapiens (Human), UniProt P37288); test: Inhibition activity on human V1aR (Fluo-4 calcium assay, HEK293/human V1aR stably transfected cells); conditions: vasopressin 3 nM
Method in brief: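 Stable HEK293/human V1aR cells, 25,000 cells/well, loaded with Fluo-4 for 30 minutes at 37° C. then 10 minutes room temperature; compounds (formulated at 10^1–10^6 nM) added 10 minutes before 3 nM vasopressin. Calcium fluorescence read immediately at 494/516; IC50 from concentration–signal curves.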

human V2R = human V2R (Homo sapiens (Human), UniProt P30518); test: Inhibition activity on human V2R (cAMP HTRF assay, HEK293/human V2R pool cells); conditions: vasopressin
Method: The inhibition effect of the compounds of the present invention on the activity of human V2R protein expressed in HEK293/human V2R cells was determined by the following experimental method:
The pcDNA3.1-V2R plasmid was transferred into HEK293 cells with the Lipofectamine® 3000 transfection reagent; G418 was added on the next day, and the HEK293/human V2R pool cell lines were obtained.
HEK293/human V2R pool cells were dissociated with the cell dissociation solution (enzyme-free), thereby dissociating the cells from the cell culture dish into individual cells. Then the cell solution was blown well, and centrifuged to remove the supernatant. The cells were resuspended in the test buffer 1 (1×HBSS+20 mM HEPES+0.1% BSA) and counted. The cell density was adjusted to 1250 cells/5 μl, i.e., 2.5*10^5/ml.
The compounds were formulated into a series of concentrations of 20 mM, 6.67 mM, 2.22 mM, 0.74 mM, 0.25 mM, 0.08 mM, 27.4 μM, 9.14 μM, 3.05 μM, 1.02 μM, 0.34 μM and 0 μM (DMSO) with pure DMSO. The compounds were then diluted into a 4-fold working concentration solution with the test buffer 2 (test buffer 1+1 mM IBMX).
Agonist: 460 μM vasopressin was used as the mother liquor, which was formulated at 2 μM with DMSO, and then diluted to 0.5 nM with the test buffer 2.
Standards: The first point was 20 μl of a stock solution (2848 nM), which was diluted successively to a total of eleven concentrations in a 4-fold concentration gradient with the test buffer 1 from the second point.
1. The well-mixed cells were added to a 384-well plate (5 μl/well) without changing the tip.
2. The test compounds and positive compound formulated were added (2.5 μl/well), and the tips were changed.
3. The plate was centrifuged at 1000 rpm for 1 min, shaken for 30 sec to mix well, and incubated at room temperature for 30 min.
4. The standard curve wells were added with the test buffer 2 (5 μl/well).
5. The formulated agonist was added (2.5 μl/well), and the tips were changed; the plate was centrifuged at 1000 rpm for 1 min, shaken for 30 sec to mix well, and incubated at room temperature for 30 min.
6. cAMP-d2 (a component in the cAMP dynamic 2 kit) and Anti-cAMP-Eu-Cryptate (a component in the cAMP dynamic 2 kit) were formulated in the dark, which were then mixed well with cAMP lysate (a component in the cAMP dynamic 2 kit) in a ratio of 1:4. Each well was added with the formulated cAMP-d2 solution (5 μl/well), followed by addition of Anti-cAMP-Eu-Cryptate (5 μl/well). The plate was shaken for 30 sec to mix well, and incubated in the dark at room temperature for 1 h.
The HTRF Signals were Read by the PheraStar Multi-Function Microplate Reader.
The data in this test was processed using the data processing software Graphpad Prism.
The inhibition activity of the compounds of the present invention on human V2R was determined by the above test, and the IC50 values obtained are shown in Table 4.

human V2R, sequence (P30518 whole entry): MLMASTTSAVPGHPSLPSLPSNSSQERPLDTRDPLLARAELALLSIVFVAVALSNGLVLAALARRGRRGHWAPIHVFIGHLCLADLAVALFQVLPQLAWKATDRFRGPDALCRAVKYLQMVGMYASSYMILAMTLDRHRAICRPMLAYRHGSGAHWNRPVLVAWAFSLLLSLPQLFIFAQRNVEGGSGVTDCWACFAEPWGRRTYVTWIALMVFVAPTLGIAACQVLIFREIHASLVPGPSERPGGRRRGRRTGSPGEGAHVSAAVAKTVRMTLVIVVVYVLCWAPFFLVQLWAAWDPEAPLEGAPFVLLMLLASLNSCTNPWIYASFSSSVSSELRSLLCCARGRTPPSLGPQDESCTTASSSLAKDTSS
human V1aR, sequence (P37288 whole entry): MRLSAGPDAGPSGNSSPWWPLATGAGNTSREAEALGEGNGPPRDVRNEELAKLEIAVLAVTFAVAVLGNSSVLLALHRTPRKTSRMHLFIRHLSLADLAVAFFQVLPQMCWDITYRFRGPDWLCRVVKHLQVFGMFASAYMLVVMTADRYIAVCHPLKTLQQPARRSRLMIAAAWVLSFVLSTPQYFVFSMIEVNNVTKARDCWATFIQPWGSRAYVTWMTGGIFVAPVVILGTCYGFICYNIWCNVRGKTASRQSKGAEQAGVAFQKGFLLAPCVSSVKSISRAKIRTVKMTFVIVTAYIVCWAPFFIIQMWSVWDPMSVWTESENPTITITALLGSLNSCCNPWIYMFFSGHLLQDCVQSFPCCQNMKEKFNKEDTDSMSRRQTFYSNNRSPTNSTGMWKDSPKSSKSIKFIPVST

Row | IC50 (human V1bR) | IC50 (human V1aR) | IC50 (human V2R) | SMILES
1 | 26 µM | 4.5 µM | 4.9 µM | COCc1nnc(N2CC(c3cccc4cc(F)ccc34)C2)n1-c1ccc(OC)nc1 [Example 2, 5-(3-(3-(6-Fluoronaphthalen-1-yl)azetidin-1-yl)-5-(methoxymethyl)-4H-1,2,4-triazol-4-yl)-2-methoxypyridine]
2 | 19.8 µM | 4.4 µM | 10.9 µM | COCc1nnc(N2CC(n3cc(C)c4cc(F)ccc43)C2)n1-c1ccc(OC)nc1 [Example 17, 5-Fluoro-1-(1-(5-(methoxymethyl)-4-(6-methoxypyridin-3-yl)-4H-1,2,4-triazol-3-yl)azetidin-3-yl)-3-methyl-1H-indole]
